# In the supplement of paper PMC10307832:
# Compound: CC(C)(C)c1nc(-c2cccc(NS(=O)(=O)c3c(F)cccc3F)c2F)c(-c2ccnc(N)n2)s1 [Dabrafenib] + O=C(c1cc(Cc2n[nH]c(=O)c3ccccc23)ccc1F)N1CCN(C(=O)C2CC2)CC1 [Olaparib] (partner 8 µM)
# Test: relative viability (nuclei count vs DMSO), 5 days (fraction); higher = more cells survive
# Settings: first compound 0.3 µM
# Outline: (§1)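 Lung cancer cell lines in 1536-well plates got either a single drug or a fixed anchor-drug dose together with five library-drug doses (not always all listed) in √10 steps, by pin tool, on the day after seeding. Nuclei were counted after 5 days, and relative viability is the treated-to-vehicle ratio of nuclei counts. Values are medians of duplicate plates.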
row,Cell Line,relative viability
1,NCI-H2085,0.854
2,IA-LM,0.554
3,NCI-H2228,0.693
4,NCI-H441,0.588
5,NCI-H522,0.633
6,EMC-BAC-2,0.388
7,NCI-H2170,0.625
8,NCI-H1703,0.395
9,UMC-11,0.427
10,NCI-H650,0.287
11,LCLC-103H,0.747
12,NCI-H596,0.752
13,HCC-827,0.671
14,COR-L 105,0.799
15,NCI-H1299,0.794
16,NCI-H2126,0.946
17,A549,0.317
18,NCI-H647,0.607
19,LOU-NH91,0.969
20,HCC-78,0.915
21,HCC-44,0.956

row,Cell Line,relative viability
1,NCI-H1651,0.165
2,NCI-H1755,0.886
3,HOP-62,0.386
4,PC-14,0.338
5,NCI-H1650,1.01
6,ChaGo-K-1,0.455
7,A-427,0.726
8,NCI-H1355,0.718
9,NCI-H1648,0.765
10,Calu-6,0.481
11,COR-L23,0.324
12,SK-LU-1,0.406
13,SW 1573,0.453
14,NCI-H2342,0.541
15,NCI-H661,0.773
16,NCI-H2009,0.516
17,NCI-H520,0.354
18,EBC-1,0.474
19,NCI-H2023,0.458
20,SK-MES-1,0.393

# Compound: NC(=O)c1ccc(N(C(N)=O)c2c(F)cccc2F)nc1-c1ccc(F)cc1F [VX-702] + NC(=O)Nc1cc(-c2cccc(F)c2)sc1C(=O)N[C@H]1CCCNC1 [AZD7762] (partner 0.2 µM)
# Test: as above
# Settings: first compound 0.02 µM
# Outline: as §1
row,Cell Line,relative viability
1,ABC-1,0.425
2,CAL-12T,0.517
3,NCI-H1944,0.565
4,NCI-H2085,1.04
5,NCI-H441,1.25
6,NCI-H522,0.92
7,EMC-BAC-2,1.11
8,NCI-H2170,1.05
9,NCI-H1703,0.123
10,NCI-H650,0.943
11,LCLC-103H,0.76
12,NCI-H596,1.1
13,HCC-827,0.2
14,NCI-H2126,0.995
15,NCI-H647,0.461
16,LOU-NH91,0.766
17,HCC-78,0.541
18,HCC-44,1.05
19,NCI-H1651,0.474
20,NCI-H1755,0.456
21,HOP-62,0.95
22,PC-14,0.411
23,ChaGo-K-1,0.958
24,A-427,0.742
25,NCI-H1355,0.867
26,NCI-H1648,0.709
27,NCI-H2342,0.607

# Same assay, conditions: first compound 0.2 µM
row,Cell Line,relative viability
1,CAL-12T,0.644
2,NCI-H1944,0.491
3,NCI-H2085,1.01
4,NCI-H441,1.08
5,NCI-H522,0.833
6,EMC-BAC-2,1.08
7,NCI-H2170,0.834
8,NCI-H1703,0.117
9,NCI-H650,0.894
10,LCLC-103H,0.816
11,NCI-H596,1.03
12,HCC-827,0.226
13,NCI-H2126,0.979
14,NCI-H647,0.386
15,LOU-NH91,0.753
16,HCC-78,0.589
17,HCC-44,1.03
18,NCI-H1651,0.429
19,NCI-H1755,0.442
20,HOP-62,0.409
21,PC-14,0.353
22,ChaGo-K-1,0.879
23,A-427,0.699
24,NCI-H1355,0.672
25,NCI-H1648,0.583
26,NCI-H2342,0.644

# Same assay, conditions: first compound 0.6325 µM
row,Cell Line,relative viability
1,ABC-1,0.432
2,CAL-12T,0.58
3,NCI-H1944,0.557
4,NCI-H2085,1.06
5,NCI-H441,1.13
6,NCI-H522,0.689
7,EMC-BAC-2,1.16
8,NCI-H2170,1.08
9,NCI-H650,0.936
10,LCLC-103H,0.825
11,NCI-H596,1.12
12,HCC-827,0.215
13,NCI-H2126,1.02
14,NCI-H647,0.494
15,LOU-NH91,0.721
16,HCC-78,0.774
17,HCC-44,1.06
18,NCI-H1651,0.468
19,NCI-H1755,0.447
20,HOP-62,1.08
21,PC-14,0.37
22,ChaGo-K-1,0.896
23,A-427,0.661
24,NCI-H1355,0.83
25,NCI-H1648,0.634
26,NCI-H2342,0.6

# Same assay, conditions: first compound 2 µM
row,Cell Line,relative viability
1,ABC-1,0.897
2,CAL-12T,0.625
3,NCI-H1944,0.358
4,NCI-H2085,1.03
5,NCI-H441,1.02
6,NCI-H522,0.931
7,EMC-BAC-2,1.08
8,NCI-H2170,0.941
9,NCI-H1703,0.115
10,NCI-H650,1.16
11,LCLC-103H,0.873
12,NCI-H596,1.09
13,HCC-827,0.137
14,NCI-H2126,1.05
15,NCI-H647,0.567
16,LOU-NH91,0.695
17,HCC-78,0.798
18,HCC-44,1.04
19,NCI-H1651,0.455
20,NCI-H1755,0.367
21,HOP-62,0.465
22,PC-14,0.265
23,ChaGo-K-1,0.879
24,A-427,0.738
25,NCI-H1355,0.813
26,NCI-H1648,0.563
27,NCI-H2342,0.552

# Compound: NC(=O)c1ccc(N(C(N)=O)c2c(F)cccc2F)nc1-c1ccc(F)cc1F [VX-702] + CS(=O)(=O)N1CCN(Cc2cc3nc(-c4cccc5[nH]ncc45)nc(N4CCOCC4)c3s2)CC1 [Pictilisib] (partner 1 µM)
# Test: as above
# Settings: first compound 0.02 µM
# Outline: as §1
row,Cell Line,relative viability
1,ABC-1,0.829
2,CAL-12T,0.482
3,NCI-H1944,0.362
4,NCI-H2085,0.429
5,IA-LM,0.298
6,NCI-H2228,0.364
7,NCI-H441,0.503
8,EMC-BAC-2,0.547
9,NCI-H2170,0.339
